# According to patent US5496849A, “Sulfonic acid derivative and its pharmaceutical application” (Toray Industries, Inc., priority 1992, dated 1996):
# Experiments:
# [1] = tested on: vasoconstriction of rat thoracic aorta induced by U-46619; assay: Vasoconstriction inhibitory action (U-46619-induced constriction of thoracic aorta spiral specimens); design: species or system long Evans rats; conditions: 10 min, pH 7.4, minimum concentration at which inhibition rate was 50% or more, 10 ng/ml U-46619, drug applied 10 minutes, 37° C., read-out: Vasoconstriction Inhibitory Action MIC
# Method: Male and female long Evans rats having body weights of 150-200 g were used in this example. After sacrificing the animals by decapitation, the thoracic aorta was removed, and the outer membrane was peeled off to obtain I2 spiral specimens roughly 2 cm in length. Blood vessel specimens were warmed to 37° C. and preserved in a Magnus tube containing 10 ml of a nutrient solution aerated with 95% oxygen+5% carbon dioxide gas. The nutrient solution contained 118.3 mmol of NaCl, 4.7 mmol of KCl, […] of CaCl, 1.2 mmol of MgSO4, 1.2 mmol of KH2 PO4, 25 mmol of NaCHO3, 11.1 mmol of D-glucose, 0.03 mmol of EDTA along with 1 μg/ml each of atropin, phentolamine, mepiramine, cyproheptadine, propranolol and indometacin, and was adjusted to a pH of 7.4. Vasoconstriction was measured using an isometric transducer (Harward UF-1 Transducer and Sekonic SS-250F Graph recorder). An equilibration time of 3 hours was provided after the blood vessels were installed on the Magnus device, and fresh nutrient solution was replaced every 30 minutes during that time. […] of U-46619, having TXA2 action (to reach roughly 75% of maximum constriction), was applied for 30 minutes to constrict the vessels. The maximum stable constriction during this time was taken to be the control constriction (C1). Next, the blood vessels were washed several times with nutrient solution to remove the drug. After allowing a recovery period of 30 minutes, the test drugs were applied at various concentrations for 10 minutes followed by again constricting the vessels by applying 10 ng/ml of U-46619 for 30 minutes. The maximum stable constriction during this time was taken to be the constriction of the test drugs (C2). The inhibition rates of vasoconstriction induced by the drugs and U-46619 were determined according to the following formula, and the minimum concentration at which the inhibition rate was 50% or more was determined as the minimum inhibitory concentration (MIC).
# ((C1-C2)/C1)×100=Inhibition rate (%)
# [2] = tested on: platelet aggregation induced by U-46619 in human platelet-rich plasma (PRP); assay: Platelet aggregation inhibitory action (U-46619-induced, human platelet-rich plasma); assay type: cell-based; conditions: compounds added 1 minute before U-46619, turbidity
# Method: Human whole blood drawn from the median cubital vein was centrifuged for 10 minutes at 800 rpm, and the upper portion was collected as platelet-rich plasma (PRP). […] The size of the aggregates were measured with a platelet aggregate measuring instrument (Hematracer 1, Nikko Bioscience) as the change in turbidity. The compounds were added 1 minute before addition of U-46619, and the concentration which inhibits aggregation by 50% was calculated as the IC50 value.
# Thromboxane A2 Receptor = biological target: T1, Thromboxane A2 Receptor (Oryctolagus cuniculus, UniProt Q6WQI8); assay: Receptor binding experiment: Thromboxane A2 Receptor Binding Test ([3H]SQ29548, washed platelets); design: species or system New Zealand White rabbits; conditions: rabbit washed platelets; [3H]SQ29548 3 nM; 60 minutes at 25° C.; read-out: Binding Inhibitory Action IC50 (converted)
# T1 sequence (Q6WQI8 1-233): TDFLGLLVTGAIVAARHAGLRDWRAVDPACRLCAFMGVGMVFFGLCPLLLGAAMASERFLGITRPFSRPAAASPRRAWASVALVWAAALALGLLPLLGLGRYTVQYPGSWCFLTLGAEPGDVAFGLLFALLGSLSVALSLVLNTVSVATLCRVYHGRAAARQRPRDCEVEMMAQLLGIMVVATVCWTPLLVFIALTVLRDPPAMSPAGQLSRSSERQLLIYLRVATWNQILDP
# Method: Whole blood from New Zealand White rabbits was collected into a container containing ACD solution (1.175 g of sodium citrate, 0.685 g of citric acid, and 1 g of dextrose dissolved in 50 ml of distilled water) followed by centrifuging at room temperature for 10 minutes at 180 ×g to obtain platelet-rich plasma. Moreover, this platelet-rich plasma was further centrifuged at room temperature and 2800 ×g to result in sedimentation of the platelets. The platelets were resuspended in 50 mM Tris hydrochloric acid buffer solution (pH 7.2, containing […]) and again centrifuged at 4° C. for 15 minutes at 2800 ×g. This procedure was repeated twice to prepare the washed platelets, and adjusted to a final concentration of 10 mg/ml (wet weight). Tritium-labelled SQ29548 ([3H]SQ29548) was used for the TXA2 ligand. In an antagonism experiment, 20 μl of [3H]SQ29548 at a final concentration of 3 nM were added to 500 μl of a 10 mg/ml platelet suspension, together with adding 2.6 μl of the test drug dissolved in a suitable buffer. After incubating for 60 minutes at 25° C., the mixture was filtered over a glass filter using the Celherbster method, the filter was washed with 50 mM Tris hydrochloric acid buffer solution (3 ×4 ml), and radioactivity was measured with a scintillation counter to determine the amount of [3H]SQ29548 bound to the platelets. In addition, in a saturation test, 20 μl of [3H]SQ29548 were added to a final concentration of 0.1-50 nM followed by the addition of 2.6 μl of BM13505 at a final concentration of 1 μM in order to examine non-specific binding and carry out a binding experiment. The concentration of the test drug which inhibited binding of [3H]SQ29548 by 50% was determined as the IC50 value.
SMILES,minimal effective concentration [1],IC50 [2],IC50 (Thromboxane A2 Receptor)
"O=C(O)COc1cccc2c1O[C@H]1C[C@@H](O)[C@H](NS(=O)(=O)c3ccc(Cl)cc3)[C@@H]21 (racemic) [(55), (1RS, 2RS, 3aSR, 8bRS)-1-(p-chlorobenzenesulfonamido)-2-hydroxy-2,3,3a,8b-tetrahydro-1H-cyclopenta[b]benzofuran-5-yloxy acetic acid]",0.1 µg/mL,17 nM,3.18 nM
"O=C(O)COc1cccc2c1O[C@H]1C[C@@H](O)[C@H](NS(=O)(=O)c3cccc(Cl)c3)[C@@H]21 (racemic) [(57), (1RS, 2RS, 3aSR, 8bRS)-1-(m-chlorobenzenesulfonamido)-2-hydroxy-2,3,3a,8b-tetrahydro-1H-cyclopenta[b]benzofuran-5-yloxyacetic acid]",0.01 µg/mL,41 nM,22.7 nM
"O=C(O)COc1cccc2c1O[C@H]1C[C@@H](O)[C@H](NS(=O)(=O)c3ccc(Br)cc3)[C@@H]21 (racemic) [(61), (1RS, 2RS, 3aSR, 8bRS)-1-(p-bromobenzenesulfonamido)-2-hydroxy-2,3,3a,8b-tetrahydro-1H-cyclopenta[b]benzofuran-5-yloxyacetic acid]",0.03 µg/mL,44 nM,2.06 nM
"O=C(O)COc1cccc2c1O[C@H]1C[C@@H](O)[C@H](NS(=O)(=O)c3ccc(I)cc3)[C@@H]21 (racemic) [(63), (1RS, 2RS, 3aSR, 8bRS)-1-(p-iodobenzenesulfonamido)-2-hydroxy-2,3,3a,8b-tetrahydro-1H-cyclopenta[b]benzofuran-5-yloxyacetic acid]",0.01 µg/mL,58 nM,22.6 nM
"O=C(O)COc1cccc2c1O[C@H]1C[C@@H](O)[C@H](NS(=O)(=O)c3ccc([N+](=O)[O-])cc3)[C@@H]21 (racemic) [(68), (1RS, 2RS, 3aSR, 8bRS)-1-(p-nitrobenzenesulfonamido)-2-hydroxy-2,3,3a,8b-tetrahydro-1H-cyclopenta[b]benzofuran-5-yloxyacetic acid]",0.1 µg/mL,140 nM,910 nM
"O=C(O)COc1cccc2c1O[C@H]1C[C@@H](O)[C@H](NS(=O)(=O)c3ccc(F)cc3F)[C@@H]21 (racemic) [(70), (1RS, 2RS, 3aSR, 8bRS)-1-(2,4-difluorobenzenesulfonamido)-2-hydroxy-2,3,3a,8b-tetrahydro-1H-cyclopenta[b]benzofuran-5-yloxyacetic acid]",0.03 µg/mL,29 nM,49.8 nM
"O=C(O)COc1cccc2c1O[C@H]1C[C@@H](O)[C@H](NS(=O)(=O)c3ccc(Cl)c(Cl)c3)[C@@H]21 (racemic) [(72), (1RS, 2RS, 3aSR, 8bRS)-1-(3,4-dichlorobenzenesulfonamido)-2-hydroxy-2,3,3a,8b-tetrahydro-1H-cyclopenta[b]benzofuran-5-yloxyacetic acid]",0.03 µg/mL,120 nM,25.3 nM
"O=C(O)COc1cccc2c1O[C@H]1CC[C@H](NS(=O)(=O)c3ccccc3)[C@@H]21 (racemic) [(90), (1SR, 3aSR, 8bRS)-1-benzenesulfonamido-2,3,3a,8b-tetrahydro-1H-cyclopenta[b]benzofuran-5-yloxyacetic acid]",0.003 µg/mL,99 nM,8.47 nM
"CO[C@@H]1C[C@@H]2Oc3c(OCC(=O)O)cccc3[C@@H]2[C@H]1NS(=O)(=O)c1ccccc1 (racemic) [(92), (1RS, 2RS, 3aSR, 8bRS)-1-benzenesulfonamido-2-methoxy-2,3,3a,8b-tetrahydro-1H-cyclopenta[b]benzofuran-5-yloxyacetic acid]",0.1 µg/mL,100 nM,57.2 nM
"O=C(O)COc1cccc2c1O[C@H]1CC[C@@H](NS(=O)(=O)c3ccccc3)[C@@H]21 (racemic) [(94), (1RS, 3aSR, 8bRS)-1-benzenesulfonamido-2,3,3a,8b-tetrahydro-1H-cyclopenta[b]benzofuran-5-yloxyacetic acid]",0.1 µg/mL,68 nM,16.7 nM
"CCOC(=O)COc1cccc2c1O[C@H]1C[C@@H](O)[C@H](NS(=O)(=O)c3ccccc3)[C@@H]21 (racemic) [(102), (1RS, 2RS, 3aSR, 8bRS)-1-benzenesulfonamido-2-hydroxy2,3,3a,8b-tetrahydro-1H-cyclopenta[b]benzofuran-5-yloxyacetic acid ethyl ester]",0.03 µg/mL,220 nM,415 nM
"O=C(O)COc1cccc2c1O[C@H]1CC[C@H](OS(=O)(=O)c3ccccc3)[C@@H]21 (racemic) [(121), (1SR, 3aSR, 8bSR)-1-(phenylsulfonyloxy)-2,3,3a,8b-tetrahydro-1H-cyclopenta[b]benzofuran-5-yloxyacetic acid]",0.003 µg/mL,130 nM,1.28 nM
"Cc1ccc(S(=O)(=O)N[C@@H]2[C@H]3c4cccc(OCC(=O)O)c4O[C@H]3C[C@H]2O)cc1 (relative stereo) [(49), (1RS, 2RS, 3aSR, 8bRS)-1-(p-toluenesulfonamido)-2-hydroxy-2,3,3a,8b-tetrahydro-1H-cyclopenta[b]benzofuran-5-yloxyacetatic acid]",0.01 µg/mL,22 nM,8.82 nM
"O=C(O)COc1cccc2c1O[C@H]1C[C@@H](O)[C@H](NS(=O)(=O)c3ccccc3Cl)[C@@H]21 (relative stereo) [(59), (1RS, 2RS, 3aSR, 8bRS)-1-(o-chlorobenzenesulfonamido)-2-hydroxy-2,3,3a,8b-tetrahydro-1-cyclopenta[b]benzofuran-5-yloxyacetic acid]",0.1 µg/mL,69 nM,22.7 nM
"O=C(O)/C=C/c1cccc2c1O[C@H]1C[C@@H](O)[C@H](NS(=O)(=O)c3ccccc3)[C@@H]21 (relative stereo) [(88), (1RS, 2RS, 3aSR, 8bRS)-1-benzenesulfonamido-2-hydroxy-2,3,3a,8b-tetrahydro-1H-cyclopenta[b]benzofuran-5-(E)-acrylic acid]",0.3 µg/mL,450 nM,648 nM
"O=C(O)COc1ccc(CCNS(=O)(=O)c2ccccc2)cc1 [Control, 4-(2-(benzenesulfonamido)ethyl) phenoxyacetic acid, reference compound]",0.3 µg/mL,5000 nM,4170 nM
